Values quoted from earlier work, collected in publication PMC11859340, “The Therapeutic Potential of Spirooxindoles in Cancer: A Focus on p53–MDM2 Modulation” (Pharmaceuticals, 2025).
Like-named read-outs stand apart in the source and are kept apart here. Values belong to the compound of their own block, whether it stands above or below them.

Tests used:
HCT116 (p53^+/+) = system: HCT116 (p53^+/+); parameters: method as in PMID 28987608; settings: MTT; read-out: IC50 against HCT116 (p53^+/+)
[1] = system: HEK 293T (embryonic kidney non-cancer); parameters: method as in PMID 28987608; settings: MTT, read-out: IC50 against HEK 293T
MCF7 = system: MCF7; parameters: method as in PMID 28987608; settings: MTT; read-out: IC50 against MCF7
MDA-MB-231 (breast) [2] = system: MDA-MB-231 (breast); parameters: method as in PMID 28987608; settings: MTT; read-out: IC50 against MDA-MB-231
HCT116 (p53^−/−) [3] = system: HCT116 (p53^−/−); parameters: method as in PMID 28987608; settings: MTT; read-out: IC50 against HCT116 (p53^−/−)
p53–MDM2 = system: p53–MDM2; parameters: method as in PMID 30458062
[4] = system: SJSA-1 (osteosarcoma cancer cell line with wild p53); parameters: method as in PMID 30458062; settings: read-out: IC50 against SJSA-1
[5] = system: SK-OV-3 (ovarian cancer cell line with mutant p53); parameters: method as in PMID 30458062; settings: read-out: IC50 against SK-OV-3
[6] = system: HEK293T (embryonic kidney); parameters: method as in doi:10.1080/10426507.2020.1723590; settings: MTT; read-out: IC50 against HEK293T
HCT116 (p53^−/−) [7] = system: HCT116 (p53^−/−); parameters: method as in doi:10.1039/C5MD00450K; settings: read-out: GI50 against HCT116 (p53^−/−)
PC-3 (p53−) = system: PC-3 (p53−); parameters: method as in PMID 30735387; settings: MTT; read-out: IC50 against PC-3 (p53−)
A549 (lung) [8] = system: A549 (lung); parameters: method as in doi:10.1080/10426507.2020.1723590; settings: MTT; read-out: IC50 against A549
p53 = system: p53; parameters: method as in doi:10.1080/10426507.2020.1723590; settings: for p53 reporter activation: A549, 1.56 to 100 μM compound concentrations; for p53 receptor activation: A549, at 100 μM
PC-3 (prostate) = system: PC-3 (prostate); parameters: method as in PMID 30802707; settings: MTT; read-out: IC50 against PC-3
HCT116 (colon) [9] = system: HCT116 (colon); parameters: method as in PMID 30802707; settings: MTT; read-out: IC50 against HCT116
HepG2 (liver) = system: HepG2 (liver); parameters: method as in PMID 30802707; settings: MTT; read-out: IC50 against HepG2
PC3 (prostate) [10] = system: PC3 (prostate); parameters: method as in PMID 34684885; settings: MTT; read-out: IC50 against PC3
HeLa (cervical) = system: HeLa (cervical); parameters: method as in doi:10.31788/RJC.2023.1638506; settings: MTT; read-out: IC50 against HeLa
HCT-116 (colon) = system: HCT-116 (colon); parameters: method as in PMID 36174446; settings: MTT; read-out: IC50 against HCT-116
MDA-MB-231 (breast) [11] = system: MDA-MB-231 (breast); parameters: method as in PMID 36174446; settings: MTT; read-out: IC50 against MDA-MB-231
MCF7 (breast) [12] = system: MCF7 (breast); parameters: method as in doi:10.31788/RJC.2023.1638506; settings: MTT; read-out: IC50 against MCF7
A549 (lung) [13] = system: A549 (lung); parameters: method as in PMID 36174446; settings: MTT; read-out: IC50 against A549
PC3 (prostate) [14] = system: PC3 (prostate); parameters: method as in PMID 36174446; settings: MTT; read-out: IC50 against PC3
[15] = system: MCF7 (breast) cancer cell line; parameters: method as in doi:10.1016/j.molstruc.2023.137026; settings: MCF7, at 200 μg/mL
A549 (lung) [16] = system: A549 (lung); parameters: method as in PMID 29302672; settings: at 10 μM, CCK-8
HCT116 (colon) [17] = system: HCT116 (colon); parameters: method as in PMID 29302672; settings: at 10 μM, CCK-8
MCF7 (breast) [18] = system: MCF7 (breast); parameters: method as in PMID 29302672; settings: at 10 μM, CCK-8

IC50 (HCT116 (p53^+/+)): 13.9 ± 1.1 µM
IC50 [1]: 21.4 ± 7.4 µM
IC50 (MCF7): 9.5 ± 3.1 µM
IC50 (MDA-MB-231 (breast) [2]): 7.6 ± 2.4 µM
IC50 (HCT116 (p53^−/−) [3]): 17.7 ± 1.3 µM
Structure (SMILES): O=C1Nc2ccc(Br)cc2C12N(c1ccccc1Cl)N=C(c1cccc(Cl)c1)N2c1cccc(Cl)c1 (centres unmarked)

IC50 (p53–MDM2): 0.004 µM
IC50 [4]: 0.471 µM
IC50 [5]: > 25 µM
Structure (SMILES): O=C(O)c1ccc([C@H]2C[C@H]3[C@@H](N2)[C@H](c2cccc(Cl)c2F)C2(C(=O)Nc4cc(Cl)ccc42)N3CC2CC2)cc1 (some centres unmarked) [compound 52, reference compound]

Structure (SMILES): O=C(O)c1ccc(N2CC3C(C2=O)C(c2cccc(Cl)c2F)C2(C(=O)Nc4cc(Cl)ccc42)N3CC2CC2)cc1 (centres unmarked) [compound 62]
IC50 (p53–MDM2): 0.004 µM
IC50 [4]: 0.161 µM
IC50 [5]: > 25 µM

GI50 (HCT116 (p53^−/−) [7]): 47.8 ± 1.9 µM
IC50 (PC-3 (p53−)): 28.1 to 29.6 µM
IC50 (HCT116 (p53^−/−) [3]): 47.8 ± 1.9 µM
Structure (SMILES): COc1ccc(C2=N[C@@H](c3ccc(Cl)cc3)[C@@H](c3ccc(Cl)cc3)N2C(=O)N2CCNC(=O)C2)c(OC(C)C)c1 [nutlin-3a, reference compound]
IC50 [6]: 10.4 ± 0.8 µM
IC50 (A549 (lung) [8]): 14.9 ± 0.6 µM
p53 reporter activation (p53): 3.6 to 5.1 folds
p53 receptor activation (p53): 5.1 fold

Structure (SMILES): O=C(/C=C/c1ccc(Cl)cc1Cl)[C@H]1[C@H](c2ccc(Cl)cc2Cl)C2CSCN2[C@]12C(=O)Nc1ccccc12 (some centres unmarked) [49 (R = R^1 = 2,4-Cl2C6H3, R^2 = H)]
IC50 (PC-3 (prostate)): 1.8 ± 0.3 µM
IC50 (VERO-B (normal) cells): 5 ± 0.245 µM
IC50 (HCT116 (colon) [9]): 2 ± 0.6 µM
IC50 (HepG2 (liver)): 0.85 ± 0.2 µM

Structure (SMILES): CN1CC2(NC(=S)N(CC34CC5CC(CC(C5)C3)C4)C2=O)C2(C1)C(=O)Nc1ccc(Cl)cc12 (centres unmarked) [92 (R = Cl, R’ = Me)]
IC50 [6]: 2.8 ± 0.3 µM
IC50 (A549 (lung) [8]): 5 ± 0.6 µM

Structure (SMILES): CN1CC2(NC(=S)N(CC34CC5CC(CC(C5)C3)C4)C2=O)C2(C1)C(=O)Nc1ccccc12 (centres unmarked) [92 (R = H, R’ = Me)]
p53 reporter activation (p53): 1.06 to 4.39 folds

Structure (SMILES): O=C(O)c1ccc(N2CCC3C(C2=O)C(c2cccc(Cl)c2F)C2(C(=O)Nc4cc(Cl)ccc42)N3CC2CC2)cc1 (centres unmarked) [compound 63]
IC50 (p53–MDM2): 0.004 µM
IC50 [4]: 0.547 µM
IC50 [5]: > 25 µM

Structure (SMILES): O=C1/C(=C/c2ccccc2)CCC[C@@]12[C@H](c1ccccc1)[C@H]1C[C@@H]3CCCC[C@@H]3N1[C@]21C(=O)Nc2cc(Cl)ccc21 [70 (R = Ph, R’ = 6-Cl)]
IC50 (PC3 (prostate) [10]): 3.7 ± 1 µM

IC50 (PC3 (prostate) [10]): 1.9 ± 0.4 µM
IC50 (HeLa (cervical)): 65.3 µM
IC50 (HCT-116 (colon)): 13.1 ± 2.1 µM
IC50 (MDA-MB-231 (breast) [11]): 5.82 ± 0.4 µM
IC50 (MCF7 (breast) [12]): 59.4 µM
IC50 (A549 (lung) [13]): 11.5 ± 0.8 µM
IC50 (PC3 (prostate) [14]): 8.8 ± 0.3 µM
Structure (SMILES): COc1cccc2c1C(=O)c1c(O)c3c(c(O)c1C2=O)C[C@@](O)(C(=O)CO)C[C@@H]3O[C@H]1C[C@H](N)[C@H](O)[C@H](C)O1 [doxorubicin, reference compound]

Structure (SMILES): CN1C[C@H](c2ccc(Cl)cc2)[C@]2(NC(=S)N(CC34CC5CC(CC(C5)C3)C4)C2=O)[C@]12C(=O)Nc1ccc(Br)cc12 [89 (R = Br, R’ = 4-ClC6H4)]
p53 receptor activation (p53): 2.03 fold

Structure (SMILES): CCCN1C(=O)[C@]2(N[C@@H](c3ccccc3)[C@@]3(Sc4c(C(=O)C(=O)OC)c5ccccc5n4C3=O)[C@H]2C(=O)OC)c2ccc(Cl)cc21
cell viability [15]: 80%

Structure (SMILES): O=C(c1ccc(Br)cc1)[C@@H]1S[C@@]2(C(=O)Nc3cccc(Br)c32)[C@@H](c2ccccc2)C[C@@H]1O [146 (R^1/R^2/R^3 = 4-Br, 4-BrC6H4, Ph)]
% inhibition, A549 (A549 (lung) [16]): 86.9%
% inhibition, HCT116 (HCT116 (colon) [17]): 81.7%
% inhibition, MCF7 (MCF7 (breast) [18]): 50.9%
